Experiments:
Format in all cases: in vivo, Sprague-Dawley rats
[1] = system: ischemia induced gastric ulcer; experiment: Effect on ischemia induced gastric ulcer (left gastric artery ligation)
Procedure: Male Sprague-Dawley rats (9 or 10 rats for one group) weighing 230 to 270 g were fasted for 24 hours but allowed free access to water ad libitum.
Under ether anesthesia, the abdomen was incised and the left gastric artery was ligated. After closing the abdomen, animals were maintained an regular feed with water ad libitum. The test compound (1) (10 mg/kg/5 ml) for the test group or vehicle (0.1 % methyl cellulose, 5 ml/kg) for the control group was given orally twice a day (9:00 a.m. and 5:00 p.m.) from the first day after the operation for 3 consecutive days. On the fourth day after the operation, the test compound (for the test group) or vehicle (for the control group) was given at 9:00 a.m. and animals were killed at.5:00 p.m.. The stomach was examined for ulcers.
Ulcer index was expressed as lesion area (mean ± standard error).

[2] = system: serum amylase increment induced by caerulein administration with water immersion restraint stress; experiment: Effect on serum amylase increment induced by caerulein administration with water immersion restraint stress; conditions: male rats, caerulein 50 µg/kg s.c. + water immersion restraint at 23°C for 7 hours; 1 mg/kg orally 30 minutes before caerulein; mean ± standard error; control group 22.5 ± 3.3
Procedure: Male Sprague-Dawley rats (6 rats for one group) weighing 210 to 240 g were fasted for 24 hours but allowed free access to water ad libitum. Immediately after caerulein administration (50 µg/kg/2 ml s.c.), rats were placed in restraint cages and immersed in water at 23°C for 7 hours. The animals were killed and blood sample was collected from femoral blood vessels. Serum amylase was measured using Neo-Amylase Test "DAIICHI" (trademark, prepared by DAIICHI KAGAKU YAKUHIN). The test compound (1) (1 mg/kg/5 ml) for the test group or vehicle (0.1 % methyl cellulose, 5 ml/kg) for the control group was given orally 30 minutes before caerulein administration.
Serum amylase concentration was expressed as mean ± standard error.

[3] = system: CHA(N^6-cyclohexyladenosine)-induced pancreatitis; experiment: Effect on CHA-induced pancreatitis (serum amylase); conditions: 10 mg/kg orally 30 minutes before CHA; for inhibition %: inhibition of CHA-induced serum amylase increase; for serum amylase (10^3 IU/ℓ): male rats, CHA 3.2 mg/kg orally, blood after 24 hours, Normal 4.1 ± 0.2, Control 28.3 ± 10.0
Procedure: Male Sprague-Dawley rats, weighing 245-260 g, were deprived of food but allowed free access to water for 24 hours CHA was given orally at a dose of 3.2 mg/kg. After 24 hours, animals were killed and blood samples were collected. Subsequently, the blood serum was prepared and amylase concentration was determined. The test compounds (1) to (5) (10 mg/kg) or vehicle (to control group) was given orally 30 minutes before CHA administration. In Normal group, vehicle was given instead of CHA.

[4] = system: CHA(N^6-cyclohexyladenosine)-induced gastric ulcer; experiment: Effect on CHA-induced gastric ulcer; conditions: 10 mg/kg orally 30 minutes before CHA; for inhibition %: inhibition of ulcer index vs Control; for ulcer index (mm^2): male rats, CHA 1 mg/kg subcutaneously, stomachs examined after 7 hours, Control 65.0 ± 18.4
Procedure: Male Sprague-Dawley rats, weighing 225-259 g, were deprived of food but allowed free access to water for 24 hours. CHA was given subcutaneously at a dose of 1 mg/kg. After 7 hours, animals were killed and stomachs were removed. Subsequently, the stomachs were inflated by injecting 12 ml of 2% formalin to fix the inner layer of gastric walls. Ten minutes later, they were incised along the greater curvature and examined for lesions. Test Compounds (1) to (5) (10 mg/kg) or vehicle (to control group) was given orally 30 minutes before CHA administration.

| SMILES | inhibition % ([1]; inhibition of ulcer index vs control group, 10 mg/kg orally twice a day) [%] | ulcer index (mm^2) ([1]; male rats, left gastric artery ligated, 10 mg/kg orally twice a day from first day after operation, killed on fourth day, lesion area, mean ± standard error, control group 26.2 ± 6.0) | serum amylase (10^3 IU/L) [2] | inhibition % [3] [%] | serum amylase (10^3 IU/ℓ) [3] | inhibition % [4] [%] | ulcer index (mm^2) [4] [mm^2] |
| --- | --- | --- | --- | --- | --- | --- | --- |
| O=C(C=Cc1c(-c2ccccc2)nn2ccccc12)N1CCCC[C@@H]1CCO [Test Compound (1), (2R)-1-[3-(2-Phenylpyrazolo[1,5-a]pyridin-3-yl)acryloyl]-2-(2-hydroxyethyl)piperidine] | 45.8 | 14.2 ± 4.0 | 13.8 ± 1.0 10^3 IU/L | 69.4 | 11.5 ± 5.8 10^3 IU/ℓ | 99.4 | 0.4 ± 0.4 |
| O=C(O)CCCn1nc(-c2c(-c3ccccc3)nn3ccccc23)ccc1=O [Test Compound (2), 3-[2-(3-Carboxypropyl)-3-oxo-2,3-dihydropyridazin-6 yl]-2-phenylpyrazolo[1,5-a]pyridine] |  |  |  | 99.6 | 4.2 ± 0.3 10^3 IU/ℓ | 97.1 | 1.9 ± 1.9 |
| O=C(O)C[C@H]1CCCCN1C(=O)C=Cc1c(-c2ccccc2)nn2ccccc12 [Test Compound (3), (2R)-1-[3-(2-Phenylpyrazolo[1,5-a]pyridin-3-yl)acryloyl]-2-(carboxymethyl)piperidine] |  |  |  | 92.6 | 5.9 ± 1.0 10^3 IU/ℓ | 99.8 | 0.1 ± 0.1 |

Reference: patent EP0497258B1, “Use of adenosine antagonists in the prevention and treatment of pancreatitis and ulcer” (FUJISAWA PHARMACEUTICAL CO., LTD., priority 1991, dated 1992)
